Reference: patent US20160222014A1, “COMPOUNDS FOR REGULATING FAK AND/OR SRC PATHWAYS” (ASANA BIOSCIENCES, LLC, priority 2013, published 2016)

target: T1, Phospho Src(Y416) (Homo sapiens, UniProt P12931); assay: Phospho Src(Y416) Sandwich ELISA; assay type: cell-based; settings: Panc1; read-out: pSrc EC50 (μM) Panc1
T1 construct: endogenous in cells; host or cells: Panc1
Description: E. Phospho Src(Y416) Sandwich ELISA
Phospho Src(Y416) Sandwich ELISA kit was obtained from Cell Signaling Tech.
(i) Reagent Preparation • 1. All microwell strips were brought to rt before use. • 2. 1× Wash Buffer was prepared by diluting 20× Wash Buffer (included in each PathScan® Sandwich ELISA Kit) in MilliQ® water or equivalently purified water. • 3. 1× Cell Lysis Buffer from CST #9803: 20 mM Tris (pH 7.5), 150 mM NaCl, 1 mM ethylene diamine tetraacetate (EDTA), 1 mM ethylene glycol-bis(2-aminoethyl)-N,N,N′,N′-tetraacetic acid (EGTA), 1% Triton™ X-100, 2.5 mM sodium pyrophosphate, 1 mM b-glycerophosphate, 1 mM Na3VO4, 1 μg/mL leupeptin. This buffer was stored at 4° C. for short-term use (1-2 weeks).
(ii) Preparing Cell Lysates • 1. The media was aspirated. The cells were treated by adding fresh media containing inhibitor for 1 h. The compound of Example 214 was used as reference. • 2. The cells were harvested under non-denaturing conditions by removing media and rinsing cells once with ice-cold PBS. • 3. PBS was removed, 0.5 mL ice-cold 1× Cell Lysis Buffer plus 1 mM phenylmethylsulfonylfluoride (PMSF) was added to each plate (10 cm in diameter) and the plate incubated on ice for 5 min. • 4. The cells were scraped off of the plate, transferred to an appropriate tube, and kept on ice. • 5. The lysates were sonicated on ice. • 6. Microcentrifugation was performed for 10 min at 4° C. and the supernatant transferred to a new tube. The supernatant was the cell lysate and was stored at −80° C. in single-use aliquots.
(iii) Test Procedure • 1. After the microwell strips reached rt, the required number of microwells were broken off. The microwells were placed in the strip holder. Unused microwells were resealed and stored at 4° C. immediately. • 2. 100 μL of Sample Diluent (supplied in each PathScan® Sandwich ELISA Kit, blue color) was added to a micro centrifuge tube. 100 μL of cell lysate was transferred into the tube and vortexed for a few seconds. […] Individual data sheets for each kit provided information regarding an appropriate dilution factor for lysates and kit assay results. However, dilution factors were titrated when specific cell lysates are used. • 3. 100 μL of each diluted cell lysate were added to the appropriate well. It was then sealed with tape and pressed firmly onto top of microwells. The plate was incubated for 2 h at 37° C. Alternatively, the plate was incubated overnight at 4° C., which gave the best detection of target protein. • 4. The tape was gently removed and the wells washed: • a. The plate contents were discarded into a receptacle. • b. Each well was washed 4 times with 1× Wash Buffer, 200 μL. • c. For each wash, plates were struck on fresh towels hard enough to remove the residual solution in each well, but wells were not allowed to completely dry at any time. • d. The underside of all wells was cleaned with a lint-free tissue. • 5. 100 μL of Detection Antibody (green color) was added to each well, sealed with tape and the plate incubated for 1 h at 37° C. • 6. The wash procedure was repeated as in Step 4. • 7. 100 μL of HRP-linked secondary antibody (red color) was added to each well, sealed with tape and the plate incubated plate for 30 min at 37° C. • 8. The wash procedure was repeated as in Step 4. • 9. 100 μL of TMB Substrate was added to each well, sealed with tape and the plate incubated for 10 min at 37° C. or 30 min at 25° C. • 10. 100 μL of STOP Solution was added to each well and shaken gently for a few seconds. Initial color of positive reaction was blue, which changed to yellow upon addition of STOP Solution. • 11. The results were read. • a. Visual Determination—read within 30 min after adding STOP Solution. • b. Spectrophotometric Determination—the underside of wells were wiped with a lint-free tissue and absorbance read at 450 nm within 30 min after adding STOP Solution.

T1 sequence (P12931 whole entry): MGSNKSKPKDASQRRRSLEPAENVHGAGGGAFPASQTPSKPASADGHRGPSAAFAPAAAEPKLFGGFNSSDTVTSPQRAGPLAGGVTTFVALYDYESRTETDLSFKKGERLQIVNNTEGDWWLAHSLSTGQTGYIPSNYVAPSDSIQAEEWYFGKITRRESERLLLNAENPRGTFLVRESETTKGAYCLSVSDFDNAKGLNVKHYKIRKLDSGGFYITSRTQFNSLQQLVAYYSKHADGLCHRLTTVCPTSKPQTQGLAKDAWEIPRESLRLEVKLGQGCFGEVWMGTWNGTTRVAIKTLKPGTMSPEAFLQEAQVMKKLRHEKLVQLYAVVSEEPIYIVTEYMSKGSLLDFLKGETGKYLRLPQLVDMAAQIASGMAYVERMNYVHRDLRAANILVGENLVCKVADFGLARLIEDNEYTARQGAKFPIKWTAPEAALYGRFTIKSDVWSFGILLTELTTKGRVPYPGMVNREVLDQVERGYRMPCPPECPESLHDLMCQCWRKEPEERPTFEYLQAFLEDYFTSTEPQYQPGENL

SMILES	EC50 [µM]
O=C1CCc2cc(Nc3ncc4cnn(Cc5ccccc5OC(F)F)c4n3)ccc2N1 [Example 21]	> 1
FC(F)Oc1ccccc1Cn1ccc2cnc(Nc3ccc4ncsc4c3)nc21 [Example 36]	> 1
CC(=O)Nc1cccc(Nc2cc3c(cn2)cnn3Cc2ccccc2OC(F)F)c1 [Example 64]	> 1
FC(F)Oc1ccccc1Cn1ncc2cnc(Nc3ccc4ncsc4c3)cc21 [Example 82]	> 1
CN(c1ncccc1Cn1ncc2cnc(Nc3ccc4[nH]c(=O)[nH]c4c3)cc21)S(C)(=O)=O [Example 142]	> 1
O=C1CCc2cc(Nc3ncc4ccn(S(=O)(=O)c5cccc6cccnc56)c4n3)ccc2N1 [Example 169]	> 1
CN(c1ncccc1Cn1ccc2cnc(Nc3ccc(NCCO)cc3)nc21)S(C)(=O)=O [Example 201]	> 1
CN(c1ncccc1Cn1ncc2cnc(Nc3ccc4c(c3)CCC(=O)N4)nc21)S(C)(=O)=O [Example 202]	> 1
O=S(=O)(c1cccc2nsnc12)n1ccc2cnc(Nc3ccc(N4CCNCC4)cc3)nc21 [Example 253]	> 1
Cn1cc(Nc2ncc3ccn(S(=O)(=O)c4cccc5cccnc45)c3n2)cn1 [Example 318]	> 1
COc1ccccc1S(=O)(=O)n1ncc2cnc(Nc3ccc(N4CCNCC4)cc3)nc21 [Example 335]	> 1
CN(c1ncccc1Cn1ccc2cnc(Nc3ccc(N4CCCC4CO)cc3)nc21)S(C)(=O)=O (stereo not drawn) [Example 536]	> 1
